Where two headings read alike, the source gives them in different places.
What was measured:
Phytophthora infestans = format: in vivo, Phytophthora infestans on tomato; settings: applied 24 h before inoculation, assessed 7 days after inoculation
[1] = system: Leptosphaeria nodorum (LEPTNO); experiment: In vitro fungitoxicity of hydrazones with and without copper towards Leptosphaeria nodorum (Example 26); format: cell-based; settings: 72 h at 25° C.; for inhibition of growth at 0.05 µg/mL: Parastagonospora nodorum, 72 h, copper-minus medium, read-out: LEPTNO % Inhn. Minus Copper Observed
[2] = hydrazone 50 ppm with 50 μM CuCl2.2H2O, tomato late blight
[3] = test compound Concn. 0.05 μg/mL
[4] = copper-plus medium (CuCl2 10 μM), test compound Concn. 0.05 μg/mL
[5] = hydrazone 50 ppm + 50 μM CuCl2.2H2O, tomato
[6] = compound 0.05 μg/mL, copper-plus medium (CuCl2.2H2O)

Row | SMILES | melting point | TLB % Control (Phytophthora infestans; [2]) | inhibition of growth at 0.05 µg/mL [1, 3] | LEPTNO % Inhn. Plus Copper Observed [1, 4] | TLB % Control (Phytophthora infestans; [5]) | inhibition of growth at 0.05 µg/mL ([1]; compound 0.05 μg/mL) | LEPTNO % Inhn. Plus Copper Observed [1, 6]
1 | O=C(N/N=C/c1ccc(Cl)cc1O)c1ccc(F)cc1 [Example 390] | 226 to 228 °C | 95.0% | 4.2% | 97.5% | – | – | –
2 | Cc1cccc(C(=O)N/N=C/c2ccc(Cl)cc2O)c1 [Example 387] | 201 to 203 °C | 87.0% | 13.5% | 96.9% | – | – | –
3 | O=C(N/N=C(/c1cc(Cl)cc(Cl)c1O)C(F)(F)F)c1ccccc1 [Example 587] | 195 to 196 °C | 2.4% | 6.2% | 96.6% | – | – | –
4 | O=C(N/N=C/c1cccc(C(F)(F)F)c1O)c1ccc(F)cc1 [Example 346] | 187 to 188 °C | 96.0% | 30% | 96.7% | – | – | –
5 | C/C(=N\NC(=O)c1ccccc1Br)c1ccc(Cl)cc1O [Example 462] | 187 to 188 °C | 86.0% | 0% | 95.0% | – | – | –
6 | COc1ccc(/C(C)=N/NC(=O)c2ccccc2Br)c(O)c1 [Example 476] | 205 to 206 °C | 69.0% | 0% | 93.9% | – | – | –
7 | C/C(=N\NC(=O)c1ccccc1Cl)c1cc(Br)cc(Br)c1O [Example 543] | 207 to 209 °C | 100.0% | 1.3% | 93.9% | – | – | –
8 | O=C(N/N=C/c1cc(Cl)ccc1O)c1ccc([N+](=O)[O-])cc1 [Example 12] | 259 to 262 °C | – | – | – | 94.0% | 0.5% | 97.4%
9 | C/C(=N\NC(=O)c1ccc(C)cc1)c1cc(C(F)(F)F)ccc1O [Example 530] | 225 to 229 °C | 59.0% | 9.8% | 96.2% | – | – | –
10 | C/C(=N\NC(=O)c1ccc(Cl)cc1)c1cc(C)ccc1O [Example 317] | 203 to 210 °C | 24.0% | 16.3% | 97.9% | – | – | –
11 | O=C(N/N=C/c1cc(Cl)cc(Cl)c1O)c1cc(Cl)ccc1O [Example 475] | 287 to 292 °C | 100.0% | 33.8% | 97.1% | – | – | –
12 | Cc1cccc(C(=O)N/N=C/c2cc(Cl)cc(C(F)(F)F)c2O)c1 [Example 376] | 199 to 201 °C | 98.0% | 13.6% | 96.5% | – | – | –
13 | Cc1ccc(C(=O)N/N=C/c2cc(Cl)cc(C(F)(F)F)c2O)c(O)c1 [Example 386] | 252 to 254 °C | 100.0% | 41.1% | 98.4% | – | – | –
14 | C/C(=N\NC(=O)c1ccccc1C)c1cccc(Cl)c1O [Example 493] | 193 to 198 °C | 95.0% | 0% | 97.8% | – | – | –
15 | O=C(N/N=C/c1ccc(Cl)cc1O)c1ccccc1O [Example 395] | 210 to 213 °C | 76.0% | 8.2% | 93.9% | – | – | –
16 | C/C(=N\NC(=O)c1cccc(Cl)c1)c1cc(C(F)(F)F)ccc1O [Example 532] | 241 to 245 °C | 56.0% | 4.9% | 91.4% | – | – | –
17 | O=C(N/N=C/c1cc(Cl)cc(Cl)c1O)c1ccc2ccccc2c1O [Example 488] | 276 to 278 °C | 72.0% | 20.1% | 92.6% | – | – | –
18 | C/C(=N\NC(=O)c1ccc(Br)cc1)c1ccc(Cl)cc1O [Example 460] | 258 to 259 °C | 39.0% | 0% | 97.6% | – | – | –
19 | C/C(=N\NC(=O)c1ccc(C)cc1)c1cc(C)ccc1O [Example 314] | 206 to 208 °C | 8.8% | 0% | 97.7% | – | – | –
20 | C/C(=N\NC(=O)c1ccc(C)cc1O)c1cc(Cl)cc(Cl)c1O [Example 491] | 320 to 323 °C | 75.0% | 25% | 97.5% | – | – | –
21 | COc1ccc(/C(C)=N/NC(=O)c2ccccc2Br)c(O)c1OC [Example 561] | 195 to 200 °C | 60.0% | 0% | 92.2% | – | – | –

Row | SMILES | melting point | TLB % Control (Phytophthora infestans; [2]) | inhibition of growth at 0.05 µg/mL [1, 3] | LEPTNO % Inhn. Plus Copper Observed [1, 4] | TLB % Control (Phytophthora infestans; [5]) | inhibition of growth at 0.05 µg/mL ([1]; compound 0.05 μg/mL) | LEPTNO % Inhn. Plus Copper Observed [1, 6]
22 | C/C(=N\NC(=O)c1ccc(Br)cc1)c1cccc(Cl)c1O [Example 500] | 226 to 232 °C | 80.0% | 9.2% | 93.2% | – | – | –
23 | COc1ccc(C(=O)N/N=C/c2cc(Cl)cc(Cl)c2O)c(O)c1 [Example 486] | 267 to 269 °C | 95.0% | 12.8% | 96.6% | – | – | –
24 | C/C(=N\NC(=O)c1cccc(C)c1)c1cccc(Cl)c1O [Example 494] | 164 to 178 °C | 96.0% | 0% | 97.7% | – | – | –
25 | C/C(=N\NC(=O)c1cccc(C)c1)c1ccc(Cl)cc1O [Example 253] | 210 to 211 °C | – | – | – | 14.0% | 4.9% | 98.0%
26 | Cc1ccc(C(=O)N/N=C/c2cccc(C(F)(F)F)c2O)cc1 [Example 344] | 239 to 241 °C | 100.0% | 31.5% | 91.8% | – | – | –
27 | O=C(N/N=C/c1c(Cl)ccc(Cl)c1O)c1cccc(F)c1 [Example 367] | 203 to 209 °C | 95.0% | 13.1% | 97.9% | – | – | –
28 | O=C(N/N=C/c1cc(C(F)(F)F)cc(C(F)(F)F)c1O)c1cccc(F)c1 [Example 334] | 240 to 242 °C | 98.0% | 10.9% | 97.8% | – | – | –
29 | O=C(N/N=C/c1c(Cl)ccc(Cl)c1O)c1ccc(F)cc1 [Example 368] | 264 to 267 °C | 98.0% | 0% | 96.9% | – | – | –
30 | C/C(=N\NC(=O)c1ccccc1Cl)c1cc(C(F)(F)F)ccc1O [Example 531] | 189 to 191 °C | 80.0% | 0% | 97.3% | – | – | –
31 | C/C(=N\NC(=O)c1ccccc1Cl)c1cc(Cl)ccc1O [Example 508] | 210 to 217 °C | 92.0% | 9.4% | 97.1% | – | – | –
32 | Cc1ccc(C(=O)N/N=C/c2cc(Cl)cc(Br)c2O)c(O)c1 [Example 434] | 262 to 268 °C | 100.0% | 25.6% | 97.4% | – | – | –
33 | O=C(N/N=C/c1cc(Cl)cc(Cl)c1O)c1cccc(C(F)(F)F)c1 [Example 249] | 165 to 169 °C | – | – | – | 100.0% | 27.8% | 95.8%
34 | C/C(=N\NC(=O)c1ccccc1Br)c1cccc(Cl)c1O [Example 502] | 178 to 183 °C | 85.0% | 4.2% | 97.2% | – | – | –
35 | N#Cc1cc(F)c(O)c(/C=N/NC(=O)c2ccccc2)c1 [Example 307] | 262 to 263 °C | 25.0% | 0% | 91.3% | – | – | –
36 | C/C(=N\NC(=O)c1cc(Cl)ccc1O)c1cc(Cl)cc(Cl)c1O [Example 490] | 322 to 325 °C | 55.0% | 31.5% | 97.0% | – | – | –
37 | O=C(N/N=C/c1cc(C(F)(F)F)cc(Cl)c1O)c1cccc(Cl)c1 [Example 325] | 210 to 212 °C | 100.0% | 0% | 95.7% | – | – | –
38 | O=C(N/N=C/c1cccc(Cl)c1O)c1ccccc1O [Example 431] | 266 to 268 °C | 91.0% | 8.5% | 95.1% | – | – | –
39 | N#Cc1cc(Br)c(O)c(/C=N/NC(=O)c2ccccc2)c1 [Example 306] | 290 to 291 °C | 35.0% | 0% | 95.2% | – | – | –
40 | COc1ccc(/C(C)=N/NC(=O)c2cccc(C)c2)c(O)c1 [Example 282] | 184 to 185 °C | – | – | – | 52.0% | 0% | 94.7%
41 | C/C(=N\NC(=O)c1ccccc1)c1cc(Br)cc(Br)c1O [Example 539] | 242 to 245 °C | 100.0% | 1.6% | 98.0% | – | – | –
